In patent US11252960B2 (KIMBERLY-CLARK WORLDWIDE, INC., priority 2017, dated 2022):

Columns and labels:
[1] = 25° C., cited from earlier work; for Solubility of Parabens, Ethanol: solvent ethanol; for Solubility of Parabens, Propylene glycol: solvent propylene glycol; for Solubility of Parabens, Water: solvent water
[2] = test system: Candida albicans (ATCC 10231); assay: Anti-fungal Minimum Inhibitory Concentration (MIC) Method, microbroth dilution; format: cell-based; settings: Table 4; RPMI-1640, 25° C., 48 hours, pH 4.5-adjusted stock
Procedure: (§1) Anti-Bacterial and Anti-Fungal Minimum Inhibitory Concentration (MIC) Method Method: Microbroth Dilution Method (96-well format). Test item: […] Solvent: Sterile MilliQ water and 0.1 M Citrate Buffer pH 4.5 Media used: • Bacterial: Cation-Adjusted Mueller-Hinton Broth (CAMHB) • Fungi: RPMI-1640 Fungi: • Incubation Temperature: • 25° C. (Candida albicans) • 35° C. (Aspergillus brasiliensis) • Incubation Time: 48 hours • Inoculum Size: 5×10^4 cfu/mL • Strains: • Candida albicans (ATCC 10231) • Aspergillus brasiliensis (ATCC 16404) • End point: Inhibition of growth, Spectrophotometer Reading @ 600 nm • Reference standards: […] All solubilized and pH 4.5-adjusted test compounds were filter-sterilized before subjecting to MIC study. […] All the strains were inoculated on their respective agar medium and incubated under conditions/durations detailed above. • Preparation of inoculum: • The bacterial colony suspension in 0.85% saline was adjusted to 1 McFarland's standard using […] which was further diluted to 1:100 in CAMHB. The fungal suspension for inoculation was prepared in 0.85% saline from 6 days old culture (for mold, A. brasiliensis) and from 2 days old culture (for yeast, C. albicans) from Sabouraud Dextrose agar medium. […] Micro titer plates were prepared as per the CLSI recommendations. One hundred and seventy five microliters of Cation-adjusted Muller Hinton Broth (CAMHB) was added to the first column of a 96 well flat bottom plate, which is the media control. Second column is for the stocks of the test compounds and reference standards from which dilutions are made. Then 175 μL of CAMHB was added to the 5th, 8th and 11th columns, 75 μL of CAMHB to the 4th, 7th and 10th columns and 50 μL of CAMHB to the 3rd, 6th and 9th columns and the last column was the organism control.

[3] = test system: Aspergillus brasiliensis (ATCC 16404); assay: as above; format: cell-based; settings: Table 4; RPMI-1640, 35° C., 48 hours, pH 4.5-adjusted stock
Procedure: as §1

[4] = test system: Burkholderia cepacia (ATCC 25416); assay: Anti-bacterial Minimum Inhibitory Concentration (MIC) Method, microbroth dilution; format: cell-based; settings: Table 4; CAMHB, 37° C., 24 hours, pH 4.5-adjusted stock
Procedure: as §1, with “RPMI-1640 […]” for “RPMI-1640”

[5] = test system: Staphylococcus aureus (ATCC 6538); assay: as above; format: cell-based; settings: Table 4; CAMHB, 37° C., 24 hours, pH 4.5-adjusted stock
Procedure: as §1, with “RPMI-1640 […]” for “RPMI-1640”

[6] = test system: Pseudomonas aeruginosa (ATCC 9027); assay: as above; format: cell-based; settings: Table 4; CAMHB, 37° C., 24 hours, pH 4.5-adjusted stock
Procedure: as §1, with “RPMI-1640 […]” for “RPMI-1640”

[7] = test system: Escherichia coli (ATCC 8739); assay: as above; format: cell-based; settings: Table 4; CAMHB, 37° C., 24 hours, pH 4.5-adjusted stock
Procedure: as §1, with “RPMI-1640 […]” for “RPMI-1640”

[8] = Determination of Dissociation Constant (pKa) by Potentiometric Titration Method; format: physicochemical; settings: ultrapure water, pH 4.5, Table 3, 0.1 mg/ml, 22° C.
Procedure: Potentiometric Titration Method: A calibrated pH meter was used for the assay. 50 mL solution of each test/reference item solution (0.1 mg/mL) was added to four beakers (two for acid titration and two for base titration). 0.1 N Sodium hydroxide (NaOH) solution was prepared as titrant solution. The pH electrode was placed into the beaker containing test/reference item solution. The initial pH of the solution will be recorded. 100 μL of 0.1 N NaOH was added successively with stirring and the pH at each addition was recorded. Base titrations were carried out individually in duplicates until a sudden shift in the pH was observed.

[9] = format: physicochemical; settings: pH 4.5
Procedure: This water was used as a test media for determining the solubility of test/reference items. Stock solutions of concentration 1 mg/mL for test items/reference items was prepared in methanol. The stock solution will be used for preparation of calibration curve standards. Calibration curve of test/reference items was prepared by serially dilution consisting of 4-5-6 concentrations in 96 well format. […] The method was as follows: Calibration curve of test items were prepared by serial dilution consisting of 8 concentrations. […] Water, 50:50). […] 40 mg of test items were weighed into tubes. […] The initial pH of the solubility samples were recorded. […] Then, the solutions were observed visually for any precipitation. […] An aliquot of the supernatant were diluted with equal volume of methanol. […] The samples were then transferred to UV plate and scanned at λmax of that particular test/reference item. Compound #12 was transferred to auto-sampler vials and submitted for LC-MS/MS analysis.

MIC (%) C. albicans [2] [%]	MIC (%) A. brasiliensis [3] [%]	MIC (%) B. cepacia [4] [%]	MIC (%) S. Aureus [5] [%]	MIC (%) P. aeruginosa [6] [%]	MIC (%) E. coli [7] [%]	pKa [8]	Solubility (wt %) [9] [wt %]	SMILES	Solubility of Parabens, Ethanol [1] [% w/w]	Solubility of Parabens, Propylene glycol [1] [% w/w]	Solubility of Parabens, Water [1] [% w/w]
								CCCCOC(=O)c1ccc(O)cc1 [Butylparaben]	68	49	0.02
0.1175	0.0588	0.1175	0.1175	>0.1175	0.0588	> 7	0.24	CCC(O)COC(=O)c1ccccc1 (centres unmarked) [Compound 12, Benzoic acid 2-hydroxy-butyl ester]			
								CCOC(=O)c1ccc(O)cc1 [Ethylparaben]	41	20	0.11
